Here are results for 35 molecules from US20250025443A1, “COMPOUNDS AND METHODS FOR TREATING CORONA VIRUSES” (CLEAR CREEK BIO, INC., priority 2021, published 2025).

The first assay concerns the target SARS-CoV-2 Papain-Like Protease (PLpro) (Severe acute respiratory syndrome coronavirus 2 (2019-nCoV) (SARS-CoV-2), UniProt P0DTD1). Kind of assay: biochemical. The settings on record: PLpro IC50, PLpro enzymatic fluorescence assay; class symbols.
In turn, `Cc1ccc(OC[C@@H]2CCN2C)cc1C(=O)NC1(c2cc3ccccc3c3ccccc23)CC1` [Compound 569, (S)-2-Methyl-5-((1-methylazetidin-2-yl)methoxy)-N-(1-(phenanthren-9-yl)cyclopropyl)benzamide] returned a 50% inhibitory concentration (IC50) of over 5 µM.

Still in this assay, the particulars now being: PLpro enzymatic fluorescence assay; class symbols; read-out: PLpro IC50.
For the molecule `Cc1ccc(OC[C@@H](C)N)cc1C(=O)NC1(c2cc(Br)cc3ccccc23)CC1` [Compound 540, (R)-5-(2-Aminopropoxy)-N-(1-(3-bromonaphthalen-1-yl)cyclopropyl)-2-methylbenzamide], the IC50 was under 0.1 µM. For `Cc1ccc(OC[C@@H](C)N)cc1C(=O)NC1(c2cc(-c3cccs3)cc3ccccc23)CC1` [Compound 543, (R)-5-(2-Aminopropoxy)-2-methyl-N-(1-(3-(thiophen-2-yl)naphthalen-1-yl)cyclopropyl)benzamide], the IC50 is under 0.1 µM. On the same count and under the same terms, the value for `CC(C)c1ccccc1C(C)N1CCC(C(=O)NCc2cccc(F)c2)CC1` (centres unmarked) [Compound 552, N-(3-Fluorobenzyl)-1-(1-(2-isopropylphenyl)ethyl)piperidine-4-carboxamide] was over 5 µM. Take `COc1cc(C2(NC(=O)c3cc(OC[C@@H]4CCCCN4C)ccc3C)CC2)c2cccnc2c1` [Compound 553, (S)-N-(1-(7-Methoxyquinolin-5-yl)cyclopropyl)-2-methyl-5-((1-methylpiperidin-2-yl)methoxy)benzamide]: the IC50 was under 0.1 µM.

For the molecule `COc1cc(C2(NC(=O)c3cc(OC[C@H]4CCN4)ccc3C)CC2)c2cccnc2c1` [Compound 554, (R)-5-(Azetidin-2-ylmethoxy)-N-(1-(7-methoxyquinolin-5-yl)cyclopropyl)-2-methylbenzamide], the half-inhibitory concentration (IC50) was under 0.1 µM. Same read-out and setting: the value for `COc1cc(C2(NC(=O)c3cc(OC[C@H]4C[C@H](F)CN4)ccc3C)CC2)c2cccnc2c1` [Compound 556, 5-(((2R,4S)-4-Fluoropyrrolidin-2-yl)methoxy)-N-(1-(7-methoxyquinolin-5-yl)cyclopropyl)-2-methylbenzamide] was under 0.1 µM; that for `COc1cc(C2(NC(=O)c3cc(OC[C@H]4C[C@H](F)CN4C)ccc3C)CC2)c2cccnc2c1` [Compound 557, 5-(((2R,4S)-4-Fluoro-1-methylpyrrolidin-2-yl)methoxy)-N-(1-(7-methoxyquinolin-5-yl)cyclopropyl)-2-methylbenzamide] was under 0.1 µM.

Turning to `COc1cc(C2(NC(=O)c3cc(OC[C@H]4CCN4C)ccc3C)CC2)c2cccnc2c1` [Compound 558, (R)-N-(1-(7-Methoxyquinolin-5-yl)cyclopropyl)-2-methyl-5-((1-methylazetidin-2-yl)methoxy)benzamide], the IC50 was under 0.1 µM.

For the molecule `COc1cc(C2(NC(=O)c3cc(OCC45CCCN4CCC5)ccc3C)CC2)c2cccnc2c1` [Compound 559, 5-((Hexahydro-1H-pyrrolizin-7a-yl)methoxy)-N-(1-(7-methoxyquinolin-5-yl)cyclopropyl)-2-methylbenzamide], the IC50 is under 0.1 µM. For `COc1cc(C2(NC(=O)c3cc(OCc4ccccn4)ccc3C)CC2)c2cccnc2c1` [Compound 562, N-(1-(7-Methoxyquinolin-5-yl)cyclopropyl)-2-methyl-5-(pyridin-2-ylmethoxy)benzamide], the IC50 lay within 0.1 to 1 µM.

`COc1cc(C2(NC(=O)c3cc(OC[C@@H]4CCN4C)ccc3C)COC2)c2ccccc2c1` [Compound 566]: the IC50 was under 0.1 µM. Turning to `COc1cc(C2(NC(=O)c3cc(OC[C@@H]4CCN4CCF)ccc3C)CC2)c2cccnc2c1` [Compound 567, (S)-5-((1-(2-Fluoroethyl)azetidin-2-yl)methoxy)-N-(1-(7-methoxyquinolin-5-yl)cyclopropyl)-2-methylbenzamide], the IC50 is under 0.1 µM. Same read-out and setting: as for `C=Cc1cc(C2(NC(=O)c3cc(OC[C@@H]4CCN4C)ccc3C)CC2)c2cccnc2c1` [Compound 570, (S)-2-Methyl-5-((1-methylazetidin-2-yl)methoxy)-N-(1-(7-vinylquinolin-5-yl)cyclopropyl)benzamide], the figure is under 0.1 µM; as for `COc1cc(C2(NC(=O)c3cc(OCCN(C)CCF)ccc3C)CC2)c2cccnc2c1` [Compound 571, 5-(2-((2-Fluoroethyl)(methyl)amino)ethoxy)-N-(1-(7-methoxyquinolin-5-yl)cyclopropyl)-2-methylbenzamide], under 0.1 µM; as for `COc1cc(C2(NC(=O)c3cc(OCC(N)C(C)C)ccc3C)CC2)c2cccnc2c1` (centres unmarked) [Compound 572, 5-(2-Amino-3-methylbutoxy)-N-(1-(7-methoxyquinolin-5-yl)cyclopropyl)-2-methylbenzamide], under 0.1 µM. Turning to `CN[C@H](C)COc1ccc(C)c(C(=O)NC2(c3cc(OC)cc4ncccc34)CC2)c1` [Compound 573, (R)-N-(1-(7-Methoxyquinolin-5-yl)cyclopropyl)-2-methyl-5-(2-(methylamino)propoxy)benzamide], the IC50 was under 0.1 µM.

The assay is the same for the next values; noted with them: SARS-CoV-2 PLpro enzymatic fluorescence assay; read-out: PLpro IC50.
In the case of `COc1cc(C2(NC(=O)c3cc(CC[C@@H]4CCC4C)ccc3C)CC2)c2ccncc2c1` (some centres unmarked) [Compound 538], the IC50 was under 0.1 µM.

As to `Cc1ccc(OC[C@H](C)N)cc1C(=O)NC1(c2cc(-c3cccs3)cc3ccccc23)CC1` [Compound 539, (S)-5-(2-Aminopropoxy)-2-methyl-N-(1-(3-(thiophen-2-yl)naphthalen-1-yl)cyclopropyl)benzamide], the IC50 was under 0.1 µM. Turning to `Cc1ccc(OC[C@H](C)N)cc1C(=O)NC1(c2cc(Br)cc3ccccc23)CC1` [Compound 541, (S)-5-(2-Aminopropoxy)-N-(1-(3-bromonaphthalen-1-yl)cyclopropyl)-2-methylbenzamide], the half-inhibitory concentration (IC50) was under 0.1 µM.

Take `Cc1ccc(OC[C@@H]2CCN2C)cc1C(=O)NC1(c2cc(O)nc3cc(F)ccc23)CC1` [Compound 542, (S)-N-(1-(7-Fluoro-2-hydroxyquinolin-4-yl)cyclopropyl)-2-methyl-5-((1-methylazetidin-2-yl)methoxy)benzamide]: the IC50 was under 0.1 µM. Consider `COc1ccc2c(C3(NC(=O)c4cc(OC[C@@H]5CCN5C)ccc4C)CC3)cccc2n1` [Compound 544, (S)-N-(1-(2-Methoxyquinolin-5-yl)cyclopropyl)-2-methyl-5-((1-methylazetidin-2-yl)methoxy)benzamide], for which the IC50 is under 0.1 µM. With `Cc1ccc(OC[C@@H]2CCN2C)cc1C(=O)NC1(c2cccc3nc(O)ccc23)CC1` [Compound 545, (S)-N-(1-(2-Hydroxyquinolin-5-yl)cyclopropyl)-2-methyl-5-((1-methylazetidin-2-yl)methoxy)benzamide], the IC50 is under 0.1 µM. `Cc1ccc2c(C3(NC(=O)c4cc(OC[C@@H]5CCN5C)ccc4C)CC3)cccc2n1` [Compound 547, (S)-2-Methyl-5-((1-methylazetidin-2-yl)methoxy)-N-(1-(2-methylquinolin-5-yl)cyclopropyl)benzamide]: the IC50 is under 0.1 µM. On to `Cc1ccc(OC[C@@H]2CCN2C)cc1C(=O)NC1(c2cccc3nc(N(C)C)ccc23)CC1` [Compound 548, (S)-N-(1-(2-(Dimethylamino)quinolin-5-yl)cyclopropyl)-2-methyl-5-((1-methylazetidin-2-yl)methoxy)benzamide], for which the IC50 was under 0.1 µM. For `CC(c1cccc2ncccc12)N1CCC(C(=O)NCc2cccc(F)c2)CC1` (centres unmarked) [Compound 549, N-(3-Fluorobenzyl)-1-(1-(quinolin-5-yl)ethyl)piperidine-4-carboxamide], the 50% inhibitory concentration (IC50) was over 5 µM.

With `COc1cc(C2(NC(=O)c3cc(OC[C@@H]4CCCCN4)ccc3C)CC2)c2cccnc2c1` [Compound 550, (S)-N-(1-(7-Methoxyquinolin-5-yl)cyclopropyl)-2-methyl-5-(piperidin-2-ylmethoxy)benzamide], the IC50 was under 0.1 µM. On the same count and under the same terms, as for `Cc1ccc(OC[C@@H]2CCN2C)cc1C(=O)NC1(c2cc(-c3cccs3)cc3ncccc23)CC1` [Compound 551, (S)-2-Methyl-5-((1-methylazetidin-2-yl)methoxy)-N-(1-(7-(thiophen-2-yl)quinolin-5-yl)cyclopropyl)benzamide], the figure is under 0.1 µM. In the case of `COc1cc(C2(NC(=O)c3cc(OC[C@@H]4CCN4C)ccc3C)CC2)c2ccccc2n1` [Compound 555, (S)-N-(1-(2-Methoxyquinolin-4-yl)cyclopropyl)-2-methyl-5-((1-methylazetidin-2-yl)methoxy)benzamide], the half-maximal inhibitory concentration (IC50) was under 0.1 µM. As for `CN[C@@H](C)COc1ccc(C)c(C(=O)NC2(c3cc(OC)cc4ncccc34)CC2)c1` [Compound 560, (S)-N-(1-(7-Methoxyquinolin-5-yl)cyclopropyl)-2-methyl-5-(2-(methylamino)propoxy)benzamide], the IC50 was under 0.1 µM.

Turning to `COc1ccnc(COc2ccc(C)c(C(=O)NC3(c4cc(OC)cc5ncccc45)CC3)c2)c1` [Compound 561, 5-((4-Methoxypyridin-2-yl)methoxy)-N-(1-(7-methoxyquinolin-5-yl)cyclopropyl)-2-methylbenzamide], the IC50 is 0.1 to 1 µM. Consider `Cc1ccc(OC[C@@H]2CCN2C)cc1C(=O)NC1(c2cc(Br)cc3ncccc23)CC1` [Compound 563, (S)-N-(1-(7-Bromoquinolin-5-yl)cyclopropyl)-2-methyl-5-((1-methylazetidin-2-yl)methoxy)benzamide], for which the IC50 is under 0.1 µM. On the same count and under the same terms, as for `Cc1ccc(OC[C@@H]2CCN2C)cc1C(=O)NC1(c2cc(O)nc3ccccc23)CC1` [Compound 565, (S)-N-(1-(2-Hydroxyquinolin-4-yl)cyclopropyl)-2-methyl-5-((1-methylazetidin-2-yl)methoxy)benzamide], the figure is under 0.1 µM. Take `C=C(C)c1cc(C2(NC(=O)c3cc(OC[C@@H]4CCN4C)ccc3C)CC2)c2cccnc2c1` [Compound 568, (S)-2-Methyl-5-((1-methylazetidin-2-yl)methoxy)-N-(1-(7-(prop-1-en-2-yl)quinolin-5-yl)cyclopropyl)benzamide]: the IC50 is under 0.1 µM. `Cc1ccc(OCCN(C)C)cc1NC(=O)C(C)c1cccc2ccccc12` (centres unmarked) [Compound 577, N-(5-(2-(Dimethylamino)ethoxy)-2-methylphenyl)-2-(naphthalen-1-yl)propanamide]: the IC50 was over 5 µM.
